Data taken from patent US20080153700A1, “Fungicidal Mixtures” (Basf Aktiengesellschaft, priority 2004, published 2008).

Tested on: Plasmopara viticola
Experiment: activity against peronospora of grapevines caused by Plasmopara viticola (protective spray on potted vines)
Assay type: in vivo, Plasmopara viticola on vines of the cultivar "Riesling"
Details: individual active compound, untreated control 88% infection
Description: The active compounds, separately or jointly, were prepared as a stock solution comprising 0.25% by weight of active compound in acetone or DMSO. 1% by weight of the emulsifier Uniperol® EL (wetting agent having emulsifying and dispersant action based on ethoxylated alkylphenols) was added to this solution, and the mixture was diluted with water to the desired concentration.
Use example—activity against peronospora of grapevines caused by Plasmopara viticola
Leaves of potted vines of the cultivar “Riesling” were sprayed to runoff point with an aqueous suspension having the concentration of active compound stated below. The next day, the undersides of the leaves were inoculated with an aqueous zoospore suspension of Plasmopara viticola. The grapevines were then initially placed in a water-vapor-saturated chamber at 24° C. for 48 hours and then in a greenhouse at 20-30° C. for 5 days. After this period of time, the plants were again placed in a humid chamber for 16 hours to promote sporangiophore eruption. The extent of the development of the disease on the undersides of the leaves was then determined visually.
The visually determined percentages of infected leaf areas were converted into efficacies in % of the untreated control:
The efficacy (E) is calculated as follows using Abbot's formula: […]
α corresponds to the fungicidal infection of the treated plants in % and β corresponds to the fungicidal infection of the untreated (control) plants in %
An efficacy of 0 means that the infection level of the treated plants corresponds to that of the untreated control plants; an efficacy of 100 means that the treated plants were not infected.
The expected efficacies of mixtures of active compounds were determined using Colby's formula (Colby, S. R. “Calculating synergistic and antagonistic responses of herbicide combinations”, Weeds, 15, 20-22, 1967) and compared with the observed efficacies.
E expected efficacy, expressed in % of the untreated control, when using the mixture of the active compounds A and B at the concentrations a and b x efficacy, expressed in % of the untreated control, when using the active compound A at the concentration a y efficacy, expressed in % of the untreated control, when using the active compound B at the concentration b

Structure (SMILES) | Efficacy in % of the untreated control (16 ppm in the spray liquor) | Efficacy in % of the untreated control (63 ppm in the spray liquor)
CC1CCN(c2c(-c3c(F)cc(F)cc3F)c(Cl)nc3ncnn23)CC1 [compound I, 5-chloro-7-(4-methylpiperidin-1-yl)-6-(2,4,6-trifluorophenyl)[1,2,4]triazolo[1,5-a]pyrimidine] | 55% | 66%
Cc1ccc(N(SC(F)(Cl)Cl)S(=O)(=O)N(C)C)cc1 [compound II, N-dichlorofluoromethylthio-N′,N′-dimethyl-N-p-tolylsulfamide] | 0% | 21%
